Assay results from PubChem BioAssay AID2060906 (Molecular Pharmacology Branch, DTP, NCI, 2025).

System: 485176-168-R4-J1-PDC complex spheroid growth
Assay: Anticancer human tumor 485176-168-R4-J1-PDC patient-derived pancreatic adenocarcinoma cell line growth inhibition [RAS]
Details: for IC50: curve of first compound; for viability, T/C: stronger effect = lower value; active means viability on the fitted dose curve at most 10% of control; inactive means the rest
How it was run: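 Multi-cell-type spheroids: tumor cells plus HUVEC endothelial cells and mesenchymal stem cells. RAS-pathway inhibitors were combined with targeted agents, each dosed in half-log steps down from clinical Cmax, or from 10 microM when Cmax was unknown.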

[1] = second compound 0.00316 µM, first compound 0.0316 µM
[2] = second compound 0.00316 µM, first compound 0.1 µM
[3] = second compound 0.00316 µM, first compound 0.316 µM
[4] = second compound 0.00316 µM, first compound 1 µM
[5] = second compound 0.00316 µM, first compound 3.16 µM
[6] = second compound 0.00316 µM, first compound 10 µM
[7] = second compound 0.01 µM, first compound 0.0316 µM
[8] = second compound 0.01 µM, first compound 0.1 µM
[9] = second compound 0.01 µM, first compound 0.316 µM
[10] = second compound 0.01 µM, first compound 1 µM
[11] = second compound 0.01 µM, first compound 3.16 µM
[12] = second compound 0.01 µM, first compound 10 µM
[13] = second compound 0.0316 µM, first compound 0.0316 µM
[14] = second compound 0.0316 µM, first compound 0.1 µM
[15] = second compound 0.0316 µM, first compound 0.316 µM
[16] = second compound 0.0316 µM, first compound 1 µM
[17] = second compound 0.0316 µM, first compound 3.16 µM
[18] = second compound 0.0316 µM, first compound 10 µM
[19] = second compound 0.1 µM, first compound 0.0316 µM
[20] = second compound 0.1 µM, first compound 0.1 µM
[21] = second compound 0.1 µM, first compound 0.316 µM
[22] = second compound 0.1 µM, first compound 1 µM
[23] = second compound 0.1 µM, first compound 3.16 µM
[24] = second compound 0.1 µM, first compound 10 µM
[25] = second compound 0.316 µM, first compound 0.0316 µM
[26] = second compound 0.316 µM, first compound 0.1 µM
[27] = second compound 0.316 µM, first compound 0.316 µM
[28] = second compound 0.316 µM, first compound 1 µM
[29] = second compound 0.316 µM, first compound 3.16 µM
[30] = second compound 0.316 µM, first compound 10 µM
[31] = second compound 1 µM, first compound 0.0316 µM
[32] = second compound 1 µM, first compound 0.1 µM
[33] = second compound 1 µM, first compound 0.316 µM
[34] = second compound 1 µM, first compound 1 µM
[35] = second compound 1 µM, first compound 3.16 µM
[36] = second compound 1 µM, first compound 10 µM
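Further: spheroids exposed to compounds for seven days before readout.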
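Wherever viability, T/C is given: luminescence viability expressed relative to DMSO vehicle wells set as 100%.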

CC1(O)CCCC1n1c(=O)c(C(F)F)cc2cnc(NC3CCN(S(C)(=O)=O)CC3)nc21 (stereo unspecified) + C=CC(=O)N1CCN(c2nc(OCC3CCCN3C)nc3c(F)c(-c4nc(N)cc(C)c4C(F)(F)F)c(Cl)cc23)C(C)C1
1810 nM: IC50 (second compound 1 µM)
2340 nM: IC50 (second compound 0.01 µM)
3650 nM: IC50 (second compound 0.316 µM)
inactive: viability, T/C [1] 97% | viability, T/C [2] 77.5% | viability, T/C [3] 59% | viability, T/C [4] 60.3% | viability, T/C [5] 55.9% | viability, T/C [7] 80.2% | viability, T/C [8] 61.8% | viability, T/C [9] 66.7% | viability, T/C [10] 67.7% | viability, T/C [11] 43.9% | viability, T/C [13] 91.2% | viability, T/C [14] 81.6% | viability, T/C [15] 70.2% | viability, T/C [16] 58% | viability, T/C [17] 51.5% | viability, T/C [19] 91.8% | viability, T/C [20] 74.5% | viability, T/C [21] 68.9% | viability, T/C [22] 68.7% | viability, T/C [23] 45% | viability, T/C [25] 103% | viability, T/C [26] 62.5% | viability, T/C [27] 73.4% | viability, T/C [28] 68.1% | viability, T/C [29] 62% | viability, T/C [31] 104% | viability, T/C [32] 86.8% | viability, T/C [33] 69.4% | viability, T/C [34] 49.1% | viability, T/C [35] 62.6% | viability, T/C [36] 2.11%
1970 nM: IC50 (second compound 0.00316 µM)
2090 nM: IC50 (second compound 0.0316 µM)
2220 nM: IC50 (second compound 0.1 µM)
active: viability, T/C [6] 4.16% | viability, T/C [12] 2.59% | viability, T/C [18] 2.26% | viability, T/C [24] 3.32% | viability, T/C [30] 3.67%

CCN1CCN(Cc2ccc(Nc3ncc(F)c(-c4cc(F)c5nc(C)n(C(C)C)c5c4)n3)nc2)CC1 + C=CC(=O)N1CCN(c2nc(OCC3CCCN3C)nc3c(F)c(-c4nc(N)cc(C)c4C(F)(F)F)c(Cl)cc23)C(C)C1
> 1000 nM: IC50 (second compound 0.00316 µM) | IC50 (second compound 0.01 µM) | IC50 (second compound 0.0316 µM) | IC50 (second compound 0.1 µM) | IC50 (second compound 0.316 µM) | IC50 (second compound 1 µM)
inactive: viability, T/C (second compound 0.00316 µM, first compound 0.00316 µM) 102% | viability, T/C (second compound 0.00316 µM, first compound 0.01 µM) 92.7% | viability, T/C [1] 107% | viability, T/C [2] 88.7% | viability, T/C [3] 69.1% | viability, T/C [4] 59.7% | viability, T/C (second compound 0.01 µM, first compound 0.00316 µM) 108% | viability, T/C (second compound 0.01 µM, first compound 0.01 µM) 90.1% | viability, T/C [7] 108% | viability, T/C [8] 80.5% | viability, T/C [9] 80.2% | viability, T/C [10] 77.3% | viability, T/C (second compound 0.0316 µM, first compound 0.00316 µM) 101% | viability, T/C (second compound 0.0316 µM, first compound 0.01 µM) 89.8% | viability, T/C [13] 88.2% | viability, T/C [14] 80.5% | viability, T/C [15] 95.8% | viability, T/C [16] 53.9% | viability, T/C (second compound 0.1 µM, first compound 0.00316 µM) 116% | viability, T/C (second compound 0.1 µM, first compound 0.01 µM) 102% | viability, T/C [19] 89% | viability, T/C [20] 93.5% | viability, T/C [21] 83.7% | viability, T/C [22] 68.1% | viability, T/C (second compound 0.316 µM, first compound 0.00316 µM) 107% | viability, T/C (second compound 0.316 µM, first compound 0.01 µM) 108% | viability, T/C [25] 77.5% | viability, T/C [26] 92% | viability, T/C [27] 75% | viability, T/C [28] 60.1% | viability, T/C (second compound 1 µM, first compound 0.00316 µM) 97.1% | viability, T/C (second compound 1 µM, first compound 0.01 µM) 92.6% | viability, T/C [31] 111% | viability, T/C [32] 87% | viability, T/C [33] 83.9% | viability, T/C [34] 60%

C[C@@H](NC(=O)c1ncnc(N)c1Cl)c1ncc(C(=O)Nc2cc(C(F)(F)F)c(Cl)cn2)s1 + C=CC(=O)N1CCN(c2nc(OCC3CCCN3C)nc3c(F)c(-c4nc(N)cc(C)c4C(F)(F)F)c(Cl)cc23)C(C)C1
inactive: viability, T/C [1] 106% | viability, T/C [2] 104% | viability, T/C [3] 101% | viability, T/C [4] 86.2% | viability, T/C [5] 84.7% | viability, T/C [6] 56.9% | viability, T/C [7] 96.1% | viability, T/C [8] 94% | viability, T/C [9] 96.5% | viability, T/C [10] 75.8% | viability, T/C [11] 81.3% | viability, T/C [12] 60.3% | viability, T/C [13] 111% | viability, T/C [14] 98.4% | viability, T/C [15] 100% | viability, T/C [16] 81.1% | viability, T/C [17] 75.6% | viability, T/C [18] 59.3% | viability, T/C [19] 89.5% | viability, T/C [20] 92.3% | viability, T/C [21] 101% | viability, T/C [22] 92% | viability, T/C [23] 78.5% | viability, T/C [24] 63.4% | viability, T/C [25] 108% | viability, T/C [26] 102% | viability, T/C [27] 101% | viability, T/C [28] 79.3% | viability, T/C [29] 83.2% | viability, T/C [30] 53% | viability, T/C [31] 100% | viability, T/C [32] 95.7% | viability, T/C [33] 77.3% | viability, T/C [34] 88.5% | viability, T/C [35] 63.7% | viability, T/C [36] 52.1%
> 10000 nM: IC50 (second compound 0.00316 µM) | IC50 (second compound 0.01 µM) | IC50 (second compound 0.0316 µM) | IC50 (second compound 0.1 µM) | IC50 (second compound 0.316 µM) | IC50 (second compound 1 µM)
